# Experimental data: ChEMBL document CHEMBL1134009, “The discovery of a potent, intracellular, orally bioavailable, long duration inhibitor of human neutrophil elastase--GW311616A a development candidate” (Bioorg Med Chem Lett, 2001)
# How the values were obtained:
# [1] = Half life of compound was determined in dog blood; type: ADME, Canis lupus familiaris
# [2] = Plasma clearance was measured in hamster at the dose of 10 mg/kg by peroral administration; type: ADME, organism-based, Cricetulus griseus; set-up: dose 10 mg/kg, route oral; conditions: chinese hamster, po, read-out: Clp
# [3] = Plasma clearance was measured in hamster at the dose of 3 mg/kg by intravenous administration; type: ADME, organism-based, Cricetulus griseus; set-up: dose 3 mg/kg, route intravenous; conditions: chinese hamster, read-out: Clp
# [4] = Bioavailability in hamster was determined; type: ADME, organism-based, Cricetulus griseus; conditions: chinese hamster, in vivo
# [5] = Half life of compound was determined in hamster blood; type: ADME, tissue-based, Cricetulus griseus; conditions: chinese hamster
# [6] = Half life of compound was determined in rat blood; type: ADME
# [7] = Half life of compound was determined in human blood; type: ADME, tissue-based
# Neutrophil elastase = molecular target: T1, Neutrophil elastase (Homo sapiens, UniProt P08246); experiment: Inhibitory concentration against Elastase
# T1 sequence (P08246 whole entry): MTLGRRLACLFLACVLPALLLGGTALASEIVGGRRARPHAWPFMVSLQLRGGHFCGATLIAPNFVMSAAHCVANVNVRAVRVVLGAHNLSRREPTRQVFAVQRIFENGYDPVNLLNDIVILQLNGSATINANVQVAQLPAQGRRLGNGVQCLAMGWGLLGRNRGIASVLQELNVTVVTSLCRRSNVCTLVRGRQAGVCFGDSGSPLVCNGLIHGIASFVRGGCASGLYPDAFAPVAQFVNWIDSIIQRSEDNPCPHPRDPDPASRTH
# Cricetulus griseus [8] = experiment: Percent inhibition of intraneutrophil elastase in hamster bronchoalveolar lavage 6 hours after oral administration at a dose 2.2 mg/kg; type: organism-based; set-up: dose 2.2 mg/kg; conditions: Lung
# Cricetulus griseus [9] = experiment: Percent inhibition of intraneutrophil elastase in hamster bronchoalveolar lavage at the dose 20 mg/kg 6 hours after oral administration.; type: organism-based; set-up: dose 20 mg/kg; conditions: Lung
# Homo sapiens = species on record: Homo sapiens; experiment: Residual elastase activity was evaluated after incubation with human whole blood for 30 min; type: functional; conditions: 0.5 h
# Cricetulus griseus [10] = experiment: Percent inhibition of intraneutrophil elastase in hamster bronchoalveolar lavage 6 hours after oral administration at a dose of 0.73 mg/kg; type: organism-based; set-up: dose 0.73 mg/kg; conditions: Lung
# Cricetulus griseus [11] = experiment: Percent inhibition of intraneutrophil elastase in hamster bronchoalveolar lavage 6 hours after oral administration at a dose of 2.2 mg/kg; type: organism-based; set-up: dose 2.2 mg/kg; conditions: Lung
# [12] = Bioavailability in hamster at a dose of 3 mg/kg by […] administration; type: ADME, organism-based, Cricetulus griseus; conditions: chinese hamster, in vivo
# [13] = Bioavailability in hamster at a dose of 3 mg/kg by oral administration; type: ADME, organism-based, Cricetulus griseus; conditions: chinese hamster, in vivo
# Cricetulus griseus [14] = experiment: Percent inhibition of intraneutrophil elastase in hamster bronchoalveolar lavage 6 hours after oral administration at a dose of 20 mg/kg; type: organism-based; set-up: dose 20 mg/kg; conditions: Lung
half-life [1] [h],CL/F [2] [mL/min/kg],clearance [3] [mL/min/kg],bioavailability [4] [%],half-life [5] [h],half-life [6] [h],half-life [7] [h],IC50 (Neutrophil elastase) [nM],IC50 (Homo sapiens) [nM],bioavailability [12] [%],bioavailability [13] [%],SMILES,inhibition (Cricetulus griseus [8]) [%],inhibition (Cricetulus griseus [9]) [%],inhibition (Cricetulus griseus [10]) [%],inhibition (Cricetulus griseus [11]) [%],inhibition (Cricetulus griseus [14]) [%]
> 6,60,60,70,> 6,3.5,> 6,242,–,–,–,CC(C)[C@H]1C(=O)N(S(C)(=O)=O)[C@H]2CN(C(=O)CCN3CCCCC3)C[C@H]12.Cl,20,88,–,–,–
–,–,–,–,–,–,–,26,1800,–,–,CC(C)[C@H]1C(=O)N(S(C)(=O)=O)[C@H]2CN(C(=O)/C=C/CN3CCCCC3)CC12 (stereo not given in full),–,–,33,77,–
3.5,140,140,–,1.4,0.3,3.7,120,–,49,49,CCC[C@H]1C(=O)N(S(C)(=O)=O)[C@H]2CN(C(=O)CCN3CCCCC3)C[C@H]12.Cl,–,–,–,4,75
